From PMC7543951 (Molecular cell, 2020)

Biological target: T1, ROR1 pseudokinase domain (Homo sapiens, UniProt Q01973)
T1 sequence (Q01973 457-752): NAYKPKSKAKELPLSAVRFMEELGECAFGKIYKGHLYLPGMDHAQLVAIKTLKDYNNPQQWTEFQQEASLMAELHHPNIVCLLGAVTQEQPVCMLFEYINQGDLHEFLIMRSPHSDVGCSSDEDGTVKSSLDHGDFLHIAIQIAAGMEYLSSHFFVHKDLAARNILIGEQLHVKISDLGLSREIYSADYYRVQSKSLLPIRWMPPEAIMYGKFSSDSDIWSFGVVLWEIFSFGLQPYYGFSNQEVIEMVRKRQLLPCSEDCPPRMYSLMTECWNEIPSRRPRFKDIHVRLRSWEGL
Assay: DSF concentration series
Assay type: binding

Cc1ccc(C(=O)Nc2ccc(CN3CCN(C)CC3)c(C(F)(F)F)c2)cc1C#Cc1cnc2[nH]ncc2c1 [GZD824]
IC50: ~1000 nM
